Reference: ChEMBL document CHEMBL1132885, “Phosphate prodrugs of PD154075” (Bioorg Med Chem Lett, 2000)

How the values were obtained:
Rattus norvegicus [1] = assay: In vivo percentage of prodrug (Compound) reconversion to PD-154075 from (male Wistar rat) plasma after intravenous administration of the 5 mg/ml compound; assay type: functional
[2] = Solubility in water was determined; assay type: physicochemical
Rattus norvegicus [3] = assay: In vivo percentage of prodrug (Compound) reconversion to PD-154075 from (male Wistar rat) plasma after intravenous administration of the 4.6 mg/ml compound; assay type: functional
Rattus norvegicus [4] = assay: In vivo percentage of prodrug (Compound) reconversion to PD-154075 from (male Wistar rat) plasma after intravenous administration of the 5.7 mg/ml compound; assay type: functional
Rattus norvegicus [5] = assay: In vivo percentage of prodrug (Compound) reconversion to PD-154075 from (male Wistar rat) plasma after intravenous administration of the 5.3 mg/mL compound; assay type: functional

SMILES: Cc1cc(C)c(C(C)(C)CC(=O)n2cc(C[C@@](C)(NC(=O)OCc3cc4ccccc4o3)C(=O)N[C@H](C)c3ccccc3)c3ccccc32)c(OP(=O)([O-])[O-])c1.[Na+].[Na+]
- Prodrug reconversion (Rattus norvegicus [1]): 9.35%
- solubility [2]: 31 mg/mL

SMILES: C[C@@H](NC(=O)[C@@](C)(Cc1cn(C(=O)c2ccccc2COP(=O)([O-])[O-])c2ccccc12)NC(=O)OCc1cc2ccccc2o1)c1ccccc1.[Na+].[Na+]
- Prodrug reconversion (Rattus norvegicus [3]): 19.9%
- solubility [2]: 55 mg/mL

SMILES: C[C@@H](NC(=O)[C@@](C)(Cc1cn(P(=O)([O-])[O-])c2ccccc12)NC(=O)OCc1cc2ccccc2o1)c1ccccc1.[Na+].[Na+]
- Prodrug reconversion (Rattus norvegicus [4]): 11.7%
- solubility [2]: 76 mg/mL

SMILES: C[C@@H](NC(=O)[C@@](C)(Cc1cn(C(=O)OCOC(=O)c2ccc(COP(=O)([O-])[O-])cc2)c2ccccc12)NC(=O)OCc1cc2ccccc2o1)c1ccccc1.[Na+].[Na+]
- Prodrug reconversion (Rattus norvegicus [5]): 59.5%
- solubility [2]: 58 mg/mL

SMILES: CC(NC(=O)[C@@](C)(Cc1c[nH]c2ccccc12)NC(=O)OCc1cc2ccccc2o1)c1ccccc1 (single isomer, unassigned)
- solubility [2]: < 0.001 mg/mL
